Results on six compounds are retold here after US20120283208A1, “ANTIBACTERIAL AMINOGLYCOSIDE ANALOGS” (Achaogen, Inc., priority 2009, published 2012).

Structures are written as SMILES. ≈ marks a conversion by molar mass, not a printed value.

The test system of assay [1] is E. coli ATCC 25922. Put plainly: MIC broth microdilution, AECO001. Conditions: Escherichia coli; AECO001 is ATCC25922; Mueller Hinton Broth, 35 C, 20 hours. It is filed as cell-based. As to the method: (§1) Minimum inhibitory concentrations (MIC) were determined by reference Clinical and Laboratory Standards Institute (CLSI) broth microdilution methods per M7-A7 [2006]. Quality control ranges utilizing E. coli ATCC 25922, P. aeruginosa ATCC 27853 and S. aureus ATCC 29213, and interpretive criteria for comparator agents were as published in CLSI M100-S17 [2007]. Briefly, serial two-fold dilutions of the test compounds were prepared at 2× concentration in Mueller Hinton Broth. The compound dilutions were mixed in 96-well assay plates in a 1:1 ratio with bacterial inoculum. The inoculum was prepared by suspension of a colony from an agar plate that was prepared the previous day. Bacteria were suspended in sterile saline and added to each assay plate to obtain a final concentration of 5×10^5 CFU/mL. The plates were incubated at 35 C for 20 hours in ambient air.

For assay [2], the system named is P. aeruginosa ATCC 27853. Put plainly: MIC broth microdilution, APAE001. Conditions: Pseudomonas aeruginosa; APAE001 is ATCC27853; Mueller Hinton Broth, 35 C, 20 hours. It counts as cell-based. How it is done:
as §1

On to `NC[C@@H]1O[C@H](O[C@H]2[C@@H](O)[C@H](O[C@@H]3[C@@H](O)[C@H](NC(=O)C4(O)CNC4)C[C@H](N)[C@H]3O[C@H]3O[C@H](CNCCO)[C@@H](O)C[C@H]3N)O[C@@H]2CO)[C@H](N)[C@@H](O)[C@@H]1O` [1/16], for which the figures for the MIC in assay [1] and in assay [2] were 1 to 16 µg/mL (≈ 1.35 to 21.6 µM) and at most 1 µg/mL, respectively.
For `NC[C@@H]1O[C@H](O[C@H]2[C@@H](O)[C@H](O[C@@H]3[C@@H](O)[C@H](NC(=O)[C@]4(O)C[C@H](N)C4)C[C@H](N)[C@H]3O[C@H]3O[C@H](CNCCO)[C@@H](O)C[C@H]3N)O[C@@H]2CO)[C@H](N)[C@@H](O)[C@@H]1O` [2/9], in that order: 1 to 16 µg/mL (≈ 1.32 to 21.2 µM) and at most 1 µg/mL.
On to `NC[C@@H](O)[C@H](O)C(=O)N[C@@H]1C[C@H](N)[C@@H](O[C@H]2O[C@H](CNCCO)[C@@H](O)C[C@H]2N)[C@H](O[C@@H]2O[C@H](CO)[C@@H](O[C@H]3O[C@@H](CN)[C@@H](O)[C@H](O)[C@H]3N)[C@H]2O)[C@H]1O` [3/3], for which the MIC in assay [1] was 1 to 16 µg/mL (≈ 1.32 to 21.1 µM); in assay [2], at most 1 µg/mL.
For `NC[C@@H]1O[C@H](O[C@H]2[C@@H](O)[C@H](O[C@@H]3[C@@H](O)[C@H](NC(=O)[C@@H](O)[C@@H](O)CN)C[C@H](N)[C@H]3O[C@H]3O[C@H](CNCCO)[C@@H](O)C[C@H]3N)O[C@@H]2CO)[C@H](N)[C@@H](O)[C@@H]1O` [4/3], the MIC is 1 to 16 µg/mL (≈ 1.32 to 21.1 µM) in assay [1] and at most 1 µg/mL in assay [2].
For `NC[C@@H](F)[C@H](O)C(=O)N[C@@H]1C[C@H](N)[C@@H](O[C@H]2O[C@H](CNCCO)[C@@H](O)C[C@H]2N)[C@H](O[C@@H]2O[C@H](CO)[C@@H](O[C@H]3O[C@@H](CN)[C@@H](O)[C@H](O)[C@H]3N)[C@H]2O)[C@H]1O` [5/3], the MIC in assay [1] was 1 to 16 µg/mL (≈ 1.31 to 21 µM); in assay [2], at most 1 µg/mL.
For `NC[C@@H]1O[C@H](O[C@H]2[C@@H](O)[C@H](O[C@@H]3[C@@H](O)[C@H](NC(=O)[C@@H](O)C(F)(F)CN)C[C@H](N)[C@H]3O[C@H]3O[C@H](CNCCO)[C@@H](O)C[C@H]3N)O[C@@H]2CO)[C@H](N)[C@@H](O)[C@@H]1O` [6/3], in that order: 1 to 16 µg/mL (≈ 1.28 to 20.5 µM) and 1 to 16 µg/mL (≈ 1.28 to 20.5 µM).
